Source: ChEMBL document CHEMBL3112402, “Chemical constituents of Plectranthus amboinicus and the synthetic analogs possessing anti-inflammatory activity” (Bioorg Med Chem, 2014)

Target: Transcription factor Jun (Homo sapiens, UniProt P05412)
Assay: Inhibition of transcription factor AP-1 binding to oligonucleotide containing TPA-responsive element in TPA-activated human HeLa cells after 1 hr by ELISA
Format: cell-based
Settings: not given

Chain of Transcription factor Jun (P05412 whole entry): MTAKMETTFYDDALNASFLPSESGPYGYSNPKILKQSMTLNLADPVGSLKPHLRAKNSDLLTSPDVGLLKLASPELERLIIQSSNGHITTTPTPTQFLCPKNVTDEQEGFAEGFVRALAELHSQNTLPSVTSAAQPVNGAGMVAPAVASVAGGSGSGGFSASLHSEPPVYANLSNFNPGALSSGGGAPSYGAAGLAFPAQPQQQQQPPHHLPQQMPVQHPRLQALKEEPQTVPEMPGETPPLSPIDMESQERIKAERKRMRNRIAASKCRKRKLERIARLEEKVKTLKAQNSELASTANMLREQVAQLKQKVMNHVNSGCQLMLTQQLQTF

Row | IC50 [µM] | Compound
1 | 11.9 | O=C(O)/C(=C\c1ccc(O)c(O)c1)C(c1ccc(O)c(O)c1)C(O)C(=O)O (stereo not drawn)
2 | 1.3 | O=C(O[C@H](Cc1ccc(O)c(O)c1)C(=O)O)[C@H]1[C@H](C(=O)O[C@H](Cc2ccc(O)c(O)c2)C(=O)O)[C@H](c2ccc(O)c(O)c2)[C@H]1c1ccc(O)c(O)c1
3 | 1.6 | O=C(O[C@H](Cc1ccc(O)c(O)c1)C(=O)O)C1=Cc2ccc(O)c(O)c2C(C(=O)O[C@H](Cc2ccc(O)c(O)c2)C(=O)O)C1c1ccc(O)c(O)c1 (stereo partly drawn)
4 | 16.2 | O=C(/C=C/c1ccc(O)c(O)c1)O[C@H](Cc1ccc(O)c(O)c1)C(=O)O [ROSMARINIC ACID]

System: not listed separately
Assay: Antiinflammatory activity in PMA-activated human U937 cells assessed as inhibition of LPS-induced TNF-alpha expression preincubated for 2 hrs followed by LPS challenge measured after 6 hrs by ELISA
Format: functional, cell-based
Settings: U-937

Row | IC50 [µM] | Compound
5 | 23.7 | C/C=C1\C(=O)C=C(C(C)C)C1=O
6 | 10.1 | CC1=CC(=O)/C(=C\C(C)C)C1=O
7 | 5.1 | CC(C)C=C1C(=O)C=CC1=O

Row | Compound | IC50 [µM]
8 | CC1=CC(=O)C(C(C)C)=CC1=O [THYMOQUINONE] | 102
